How the values were obtained:
[1] = mn = molality of the nth substance listed, in mol/kg; details: 101 kPa, Liquid, Frequency=3 MHz, Sing-around technique in a fixed-path interferometer
[2] = 101 kPa, Liquid, Frequency=3 MHz, Sing-around technique in a fixed-path interferometer

NCC(=O)O [2-aminoacetic acid] + O
speed of sound [m/s], [1]
Details | m1 = 0.01207 | m1 = 0.0523 | m1 = 0.1037 | m1 = 0.2037 | m1 = 0.3068 | m1 = 0.4124 | m1 = 0.5028 | m1 = 0.6058 | m1 = 0.6829 | m1 = 0.82
288.15 K | 1467.2 | 1470.1 | 1472.3 | 1477.8 | 1483.4 | 1488.7 | 1494.5 | 1499.2 | 1503.4 | 1510.2
298.15 K | 1497.7 | 1500.1 | 1502.3 | 1507.2 | 1512.4 | 1517.8 | 1523 | 1527.3 | 1531.3 | 1537.7
308.15 K | 1520 | 1522.9 | 1524.7 | 1529.7 | 1534.6 | 1539.7 | 1543.8 | 1548.7 | 1552.5 | 1558.6
318.15 K | 1537.2 | 1538.9 | 1541.1 | 1545.8 | 1551.4 | 1555.4 | 1560.2 | 1564.1 | 1567.7 | 1573.5

O=C([O-])CC(O)(CC(=O)[O-])C(=O)[O-].[NH4+].[NH4+].[NH4+] [ammonium 2-hydroxypropane-1,2,3-tricarboxylate] + O
speed of sound [m/s], [1]
Details | 288.15 K | 298.15 K | 308.15 K | 318.15 K
m1 = 0.2 | 1503.6 | 1532.2 | 1553.8 | 1569
m1 = 0.4 | 1540.7 | 1567.5 | 1587.7 | 1602.1
m1 = 0.6 | 1578.5 | 1603.3 | 1622 | 1635.2
m1 = 0.8 | 1615.6 | 1638.6 | 1655.7 | 1667.6

CC(C)[C@H](N)C(=O)O [L-valine] + O
speed of sound [m/s], [1]
Details | m1 = 0.00555 | m1 = 0.02398 | m1 = 0.03504 | m1 = 0.05824 | m1 = 0.07873 | m1 = 0.09938 | m1 = 0.2068 | m1 = 0.2992 | m1 = 0.4017
288.15 K | 1467.4 | 1467.3 | 1469.7 | 1469.6 | 1472.8 | 1474.8 | 1477 | 1488.4 | 1497.2
298.15 K | 1497.5 | 1497.4 | 1499.6 | 1499.7 | 1502.4 | 1504.4 | 1506.2 | 1516.6 | 1524.8
308.15 K | 1520.4 | 1520.4 | 1522 | 1522.6 | 1525 | 1526.9 | 1528.2 | 1537.8 | 1545.2
318.15 K | 1537.1 | 1537.4 | 1538.7 | 1539 | 1541.2 | 1542.7 | 1544.4 | 1552.5 | 1560.4

C[C@H](N)C(=O)O [(S)-2-aminopropanoic acid] + O
speed of sound [m/s], [1]
Details | m1 = 0.00939 | m1 = 0.04689 | m1 = 0.09896 | m1 = 0.2003 | m1 = 0.2979 | m1 = 0.3997 | m1 = 0.4941 | m1 = 0.6099 | m1 = 0.6973 | m1 = 0.7978
288.15 K | 1467.6 | 1469.9 | 1472.8 | 1480.3 | 1487.3 | 1494.3 | 1500.3 | 1509.5 | 1513.3 | 1520
298.15 K | 1497.9 | 1499.8 | 1502.8 | 1509.6 | 1515.9 | 1522.7 | 1528 | 1536.7 | 1540.4 | 1546.2
308.15 K | 1520.8 | 1522.7 | 1525.5 | 1531.8 | 1537.9 | 1544 | 1549 | 1556.8 | 1560.7 | 1566
318.15 K | 1537 | 1539.2 | 1542 | 1547.9 | 1553.2 | 1558.7 | 1564.1 | 1571.4 | 1574.7 | 1611.9

O [water]
[2]
Details | speed of sound [m/s]
288.15 K | 1463.1
298.15 K | 1495.8
308.15 K | 1519.1
